Assay results as given in publication PMC10514295, “Imidazo[1,2-c]quinazolines as a novel and potent scaffold of α-glucosidase inhibitors: design, synthesis, biological evaluations, and in silico studies” (Scientific Reports, 2023).

Legend:
[1] = target: T1, Saccharomyces cerevisiae α-glucosidase (Saccharomyces cerevisiae, UniProt P53341); assay: biochemical; settings: mean ± SD, at least three experiments; substrate p-nitrophenyl glucopyranoside, pH 6.8, 37 °C; read-out: IC50 (in vitro α-glucosidase inhibitory activity)
T1 construct: purchased Sigma-Aldrich
Protocol: The target substituted imidazo[1,2-c]quinazolines 6a–c and 11a–o were evaluated for their in vitro Saccharomyces cerevisiae α-glucosidase inhibitory activities to investigate the role of substituents on the imidazole moiety and the phenyl ring originated from benzaldehyde moieties.
α-Glucosidase enzyme ((EC3.2.1.20, Saccharomyces cerevisiae, 20 U mg^−1) and substrate (p-nitrophenyl glucopyranoside) were purchased from Sigma-Aldrich. Enzyme was prepared in potassium phosphate buffer (pH 6.8, 50 mM), as well as substituted benzo[4,5]imidazo[1,2-c]quinazoline 6a-c and highly-substituted imidazo[1,2-c]quinazolines 11a–o were dissolved in DMSO (10% final concentration). The various concentrations of these compounds ([…]), enzyme solution ([…]) and potassium phosphate buffer ([…]) were added in the 96-well plate and incubated at 37 °C for 10 min. Afterwards, the substrate ([…], 4 mM) was added to the mentioned mixture and allowed to incubate at 37 °C for 20 min. […] The percentage of enzyme inhibition was calculated using Eq. (6) and IC50 values were obtained from non-linear regression curve using the Logit method.6 %Inhibition=Abscontrol-Abssample/Abscontrol×100

α-glucosidase [2] = target: T2, α-glucosidase (Saccharomyces cerevisiae, UniProt P53341); assay: Circular dichroism spectroscopy, secondary structure content of the enzyme; set-up: purchased Sigma-Aldrich; settings: inhibitor 12.4 μM
Protocol: The difference between the absorption of right and left circularly polarized light is measured in circular dichroism spectroscopy (CD) in order to reveal the chiral environment around amino acid residues. The CD spectrum in the far ultraviolet region ranged from 190 to 240 nm is mainly used to provide valuable information about the arrangement of protein bonds and secondary structure of the proteins in dilute solutions. There are several principal conformations like α-helix, extended β structure (or β-sheet), β-turn, and random coil (which are unordered structures). They are characterized as follow: α-helix structures by negative CD bands at 222 and 208 nm and a positive CD band at approximately 190 nm; β-sheet structures by a negative CD band in the region of 210–220 nm; β-turn structures by a negative CD band between 180 and 190 nm; and the spectra of random coil by a characteristic negative CD band in region of 200 nm[49],[50].
To study the impact of imidazo[1,2-c]quinazoline 11j on the secondary structure of α-glucosidase (Fig. 4b), the CD spectra (180–250 nm) was measured and analyzed using the CDNN software to be compared with the native enzyme (Fig. 4a). […] Moreover, this compound can change the secondary structure of α-glucosidase, resulting to inhibit its performance.

α-glucosidase [3] = target: T2, α-glucosidase; assay: Fluorescence spectroscopy (quenching) measurements; assay type: binding; set-up: purchased Sigma-Aldrich
Protocol: In present study, fluorescence spectroscopy measurement was performed between imidazo[1,2-c]quinazoline 11j and the active site of enzyme using a Synergy HTX multi-mode reader (Biotek Instruments, Winooski, VT, USA) equipped with a quartz cuvette of 10 mm. The excitation wavelength was 280 nm, and the emission spectra were reported at five different temperatures in the range from 300 to 450 nm with 10 accumulations for each collection point. The emission spectrum was adjusted for the background fluorescence from the buffer solution and for the inner filter effect promoted by the inhibitors (Fig. 5).
There are two types of fluorescence quenching: dynamic and static. Dynamic quenching arises from the collisional encounter between the fluorophore (tryptophan residues) and the quencher (inhibitor). […] Therefore, the biding parameters can be determined as follow:
The reaction is determined as P + D → DnP in which P is the protein, D is the drug molecule (inhibitor), and DnP is the new complex molecule. The binding constant for this complex for this complex, denoted as KA, is calculated using Eq. (1). […] Since the number of the binding site of protein and drug is n and 1, respectively, the equivalent concentration of the complex DnP is n[DnP]. Moreover, the equivalent concentration of the protein is n[P], and the equivalent concentration of the drug is [D]:1 KA=nDnP/DnP
The total concentration of protein is [Pt], and the total concentration of the drug is [Dt]; therefore, [Pt] = [Pf] + [DnP] and [Df] = [Dt]−n[DnP]. Since protein (P) is the only fluorescence in present study, thus:2 F0/F=Pt/Pf
F and F0 are the fluorescence intensity of protein in the presence and absence of inhibitor, respectively. Therefore, the relationship between the fluorescence intensity and the total concentration of the drug could be deduced:3 F0/F=KADtF0/F0-F-n KAPt
As the total concentration of protein was kept at a constant value (at 46 nM), while the total concentration of the drug was changed. Using the Eq. (3), a plot of F0/F Vs. [Dt] F0/(F0−F) was obtained, as depicted in Fig. 6.
To this aim, different solutions containing different concentrations (0 to 1.0 µM) of the inhibitor and α-glucosidase (3 ml, 0.1 U ml^−1) were held for 10 min to equilibrate before measurements. Moreover, the fluorescence of the buffer containing compound 11j in the absence of the enzyme were subtracted as the background fluorescence. Afterwards, at the excitation wavelength of 280 nm, the fluorescence emission spectra were measured from 300 to 450 nm using a Synergy HTX multi-mode reader (Biotek Instruments, Winooski, VT, USA) equipped with a 1.0 cm quartz cell holder.

α-glucosidase [4] = target: T2, α-glucosidase; assay: Thermodynamic analysis of binding to α-glucosidase; set-up: purchased Sigma-Aldrich
From the text: This fluorescent intensity data was plotted as a function of temperature and binding constants; therefore, thermodynamic profile including ΔG (free energy change), ΔH (enthalpy change), and ΔS (entropy change) could be computed to determine the type of non-covalent forces between imidazo[1,2-c]quinazoline 11j and binding site of α‑glucosidase. These forces between the protein and inhibitor can be categorized into four groups: hydrogen bond, van der Waals forces, electrostatic attraction, and hydrophobic interactions. To identify the type of interactions in present study, thermodynamic parameters must be calculated using following equations:4 lnKA2/KA1=ΔH/R1/T2-1/T1 5 ΔG=-RT ln KA=ΔH-TΔS
Already, there was some information including binding constants (KA2 = 36.6 × 10^4 and KA1 = 40.5 × 10^4) as well as initial and final temperatures (T1 = 20 ℃ (293 K) and T2 = 60 ℃ (333 K)). Therefore, using Eq. (4), ΔH is obtained − 2.17 (kJ mol^–1) and subsequently using Eq. (5), ΔG and ΔS values are calculated − 20.6 (kJ mol^–1) and 62.9 (J mol^–1 K^–1), respectively.
Considering the sign of these thermodynamic parameters, the type of non-covalent force could be determined as follow: (1) ΔH > 0, ΔS > 0, hydrophobic interactions; (2) ΔH < 0, ΔS > 0, van der Waals forces; (3) ΔH < 0, ΔS < 0, hydrogen bond and van der Waals interactions; and (4) ΔH < 0, ΔS > 0, electrostatic interactions.

α-glucosidase [5] = target: T2, α-glucosidase; assay: Enzyme kinetic study (Lineweaver–Burk plot)
Protocol: [I] is the concentration of inhibitor.
Therefore, the slope of Lineweaver Burk plot is equal to:10 Slope=Km/Vmax1+I/KI
The Kmapp value is calculated by Eq. (6):11 Kmapp=Km1+I/KI
[I], Eq. (7) can be used for the calculation of KI[59],[60]:12 Kmapp=Km+Km/KII

T2 sequence (P53341 whole entry): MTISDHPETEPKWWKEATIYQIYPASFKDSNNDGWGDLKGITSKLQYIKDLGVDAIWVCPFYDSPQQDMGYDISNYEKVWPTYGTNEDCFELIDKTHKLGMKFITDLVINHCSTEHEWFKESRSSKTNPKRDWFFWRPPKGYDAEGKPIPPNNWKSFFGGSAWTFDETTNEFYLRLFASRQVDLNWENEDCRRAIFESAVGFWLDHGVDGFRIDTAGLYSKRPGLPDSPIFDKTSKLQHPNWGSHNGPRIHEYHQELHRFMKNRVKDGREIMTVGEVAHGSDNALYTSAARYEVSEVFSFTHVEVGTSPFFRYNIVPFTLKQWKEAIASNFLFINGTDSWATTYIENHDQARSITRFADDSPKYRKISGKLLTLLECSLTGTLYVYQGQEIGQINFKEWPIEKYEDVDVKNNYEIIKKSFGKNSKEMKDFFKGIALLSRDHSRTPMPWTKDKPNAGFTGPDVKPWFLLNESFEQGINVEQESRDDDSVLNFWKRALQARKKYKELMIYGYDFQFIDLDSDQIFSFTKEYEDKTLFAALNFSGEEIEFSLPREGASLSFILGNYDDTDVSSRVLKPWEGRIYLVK
T1 sequence (P53341 whole entry): as above

Structure (SMILES)	IC50 [1]	also measured
c1ccc(-c2nc3ccccc3c3nc4ccccc4n23)cc1 [6a, 6-phenylbenzo[4,5]imidazo[1,2-c]quinazoline]	256.48 ± 0.14 µM	–
Clc1ccc(-c2nc3ccccc3c3nc4ccccc4n23)cc1 [6b, 6-(4-chlorophenyl)benzo[4,5]imidazo[1,2-c]quinazoline]	308.33 ± 0.06 µM	–
COc1ccc(-c2nc3ccccc3c3nc4ccccc4n23)cc1 [6c, 6-(4-methoxyphenyl)benzo[4,5]imidazo[1,2-c]quinazoline]	124.3 ± 0.37 µM	–
c1ccc(-c2nc3c4ccccc4nc(-c4ccccc4)n3c2-c2ccccc2)cc1 [11a, 2,3,5-triphenylimidazo[1,2-c]quinazoline]	209.15 ± 0.04 µM	–
Clc1ccc(-c2nc3ccccc3c3nc(-c4ccccc4)c(-c4ccccc4)n23)cc1 [11b, 5-(4-chlorophenyl)-2,3-diphenylimidazo[1,2-c]quinazoline]	273.28 ± 0.09 µM	–
Clc1cccc(-c2nc3ccccc3c3nc(-c4ccccc4)c(-c4ccccc4)n23)c1 [11c, 5-(3-chlorophenyl)-2,3-diphenylimidazo[1,2-c]quinazoline]	246.49 ± 0.18 µM	–
Clc1ccccc1-c1nc2ccccc2c2nc(-c3ccccc3)c(-c3ccccc3)n12 [11d, 5-(2-chlorophenyl)-2,3-diphenylimidazo[1,2-c]quinazoline]	253.1 ± 0.26 µM	–
Cc1ccc(-c2nc3ccccc3c3nc(-c4ccccc4)c(-c4ccccc4)n23)cc1 [11e, 5-(4-methylphenyl)-2,3-diphenylimidazo[1,2-c]quinazoline]	124.5 ± 0.29 µM	–
CN(C)c1ccc(-c2nc3ccccc3c3nc(-c4ccccc4)c(-c4ccccc4)n23)cc1 [11f, 4-(2,3-diphenylimidazo[1,2-c]quinazolin-5-yl)-N,N-dimethylaniline]	168.36 ± 0.15 µM	–
COc1ccc(-c2nc3ccccc3c3nc(-c4ccccc4)c(-c4ccccc4)n23)cc1 [11g, 5-(4-methoxyphenyl)-2,3-diphenylimidazo[1,2-c]quinazoline]	82.64 ± 0.03 µM	–
COc1cccc(-c2nc3ccccc3c3nc(-c4ccccc4)c(-c4ccccc4)n23)c1 [11h, 5-(3-methoxyphenyl)-2,3-diphenylimidazo[1,2-c]quinazoline]	47.92 ± 0.18 µM	–
COc1ccccc1-c1nc2ccccc2c2nc(-c3ccccc3)c(-c3ccccc3)n12 [11i, 5-(2-methoxyphenyl)-2,3-diphenylimidazo[1,2-c]quinazoline]	24.25 ± 0.13 µM	–
COc1cccc(-c2nc3ccccc3c3nc(-c4ccccc4)c(-c4ccccc4)n23)c1OC [11j, 5-(2,3-dimethoxyphenyl)-2,3-diphenylimidazo[1,2-c]quinazoline]	–	α-Helix content of α-glucosidase (α-glucosidase [2]; native enzyme 28.8): 50.3%; ꞵ-Turn content of α-glucosidase (α-glucosidase [2]; native enzyme 28.8): 49.7%; Random coil content of α-glucosidase (α-glucosidase [2]; native enzyme 42.4): 0%; number of binding sites n (α-glucosidase [3]; 20 ℃): 0.3; binding constant KA (α-glucosidase [3]; 20 ℃, protein 46 nM): 40.5 × 10^4 L mol^–1 s^–1; binding constant KA (α-glucosidase [3]; 60 ℃): 36.6 × 10^4 L mol^–1 s^–1; fluorescence quenching mechanism (α-glucosidase [3]; tryptophan residues as fluorophores): static quenching; ΔS (entropy change) (α-glucosidase [4]; Eq. (5)): 62.9 J mol^–1 K^–1; acting non-covalent force between inhibitor and enzyme (α-glucosidase [4]; from signs of ΔH and ΔS): electrostatic forces; Ki (α-glucosidase [5]): 11 µM; type of inhibition (α-glucosidase [5]; Lineweaver–Burk plot: Km increased, Vmax did not change): competitive
COc1ccc(-c2nc3ccccc3c3nc(-c4ccccc4)c(-c4ccccc4)n23)c(OC)c1 [11k, 5-(2,4-dimethoxyphenyl)-2,3-diphenylimidazo[1,2-c]quinazoline]	14.32 ± 0.05 µM	–
COc1ccc(OC)c(-c2nc3ccccc3c3nc(-c4ccccc4)c(-c4ccccc4)n23)c1 [11l, 5-(2,5-dimethoxyphenyl)-2,3-diphenylimidazo[1,2-c]quinazoline]	64.29 ± 0.54 µM	–
COc1ccc(-c2nc3ccccc3c3nc(-c4ccccc4)c(-c4ccccc4)n23)cc1OC [11m, 5-(3,4-dimethoxyphenyl)-2,3-diphenylimidazo[1,2-c]quinazoline]	21.6 ± 0.32 µM	–
COc1cc(-c2nc3ccccc3c3nc(-c4ccccc4)c(-c4ccccc4)n23)cc(OC)c1OC [11n, 2,3-diphenyl-5-(3,4,5-trimethoxyphenyl)imidazo[1,2-c]quinazoline]	46.73 ± 0.07 µM	–
COc1cc(-c2nc3ccccc3c3nc(-c4ccccc4)c(-c4ccccc4)n23)cc(Br)c1OC [11o, 5-(3-bromo-4,5-dimethoxyphenyl)-2,3-diphenylimidazo[1,2-c]quinazoline]	154.9 ± 0.36 µM	–
